Experiment: recombinant barcode read abundance after kanamycin selection (control-corrected) (log10(CPM+1)); higher = more efficient recombination; sequences stand for … in AGTGCAGAGAAAATCGGCCAGTTTTCTCTGCCTGCAGTCCGCATGCCGT…AGATTTATGCAGCGGACTGCCTTTCTCCCAAAGTGATAAACCGGACAGTATCATGGACCGGTTTTCCCGGTAATCCGTATTTGCAAGGTTGGTTTCACT; site = the 11-nt target
Summary of the method: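 Recombination efficiency was calculated from barcode counts at recombinant junctions, normalized to counts per million, averaged and corrected by the control. Each value is given as log10(CPM+1). The constructs were Gibson-cloned oligos (promoter, target, barcode, J23119-driven first 104 bridge RNA bases) in a vector with the remaining 73 bp and a T7-inducible recombinase, co-electroporated into E. coli with a donor plasmid and plated in duplicate on chloramphenicol/ampicillin LB agar (control) or chloramphenicol/ampicillin/kanamycin with 0.1 mM IPTG.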
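Also: IS621 recombinase and bridge RNA in Escherichia coli cells.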

Sequence | recombinant barcode read abundance (log10)
TAACATACTTGGGTTCTAACCTGTTGCAT (site TAACTTACTAT) | 0.0391
TAACCATCTTGGGTTCTAACCTGTTGCCT (site TAACCATCTAG) | 0.266
TAACCATCTTGGGTTCTAACCTGTTGCCT (site TACCCATCTAG) | 0.0574
TAACCATCTTGGGTTCTAACCTGTTGCCT (site TAGCCATCTAG) | 0.0156
TAACCATCTTGGGTTCTAACCTGTTGCCT (site TATCCATCTAG) | 0.0811
TAACCTGCTTGGGTTCTAACCTGTTGCCT (site TAACCTACTAG) | 0.532
TAACCTGCTTGGGTTCTAACCTGTTGCCT (site TAACCTCCTAG) | 0.0336
TAACCTGCTTGGGTTCTAACCTGTTGCCT (site TAACCTGCTAG) | 0.889
TAACCTGCTTGGGTTCTAACCTGTTGCCT (site TAACCTTCTAG) | 0.624
TAACCTTCTTGGGTTCTAACCTGTTGCCT (site TAACCTACTAG) | 0
TAACCTTCTTGGGTTCTAACCTGTTGCCT (site TAACCTCCTAG) | 0.019
TAACCTTCTTGGGTTCTAACCTGTTGCCT (site TAACCTGCTAG) | 0.00987
TAACCTTCTTGGGTTCTAACCTGTTGCCT (site TAACCTTCTAG) | 0.472
TAAGACCCTTGGGTTCTAACCTGTTGCCT (site TAAGACCCTAG) | 2.33
TAAGACCCTTGGGTTCTAACCTGTTGCCT (site TCAGACCCTAG) | 0.454
TAAGACGCTTGGGTTCTAACCTGTTGCCT (site TAAGACGCTAG) | 2.33
TAAGACGCTTGGGTTCTAACCTGTTGCCT (site TACGACGCTAG) | 0.0565
TAAGACGCTTGGGTTCTAACCTGTTGCCT (site TAGGACGCTAG) | 0.729
TAAGACGCTTGGGTTCTAACCTGTTGCCT (site TATGACGCTAG) | 1.05
TAAGGTCCTTGGGTTCTAACCTGTTGCTT (site AGGTCAACTCG) | 0.224
TAAGGTCCTTGGGTTCTAACCTGTTGCTT (site TAAGGTCCTAA) | 1.49
TAAGTACCTTGGGTTCTAACCTGTTGCCT (site AAAGTACCTAG) | 1.12

Sequence | recombinant barcode read abundance (log10)
TAAGTACCTTGGGTTCTAACCTGTTGCCT (site CAAGTACCTAG) | 0.517
TAAGTACCTTGGGTTCTAACCTGTTGCCT (site GAAGTACCTAG) | 0.029
TAAGTACCTTGGGTTCTAACCTGTTGCCT (site TAAGTACCTAG) | 1.88
TAATATTCTTGGGTTCTAACCTGTTGCCT (site TAATATTCTAG) | 0.0128
TAATATTCTTGGGTTCTAACCTGTTGCCT (site TAGGATTCTAG) | 0.041
TAATCCTCTTGGGTTCTAACCTGTTGCCT (site AAATCCTCTAG) | 0.984
TAATCCTCTTGGGTTCTAACCTGTTGCCT (site CAATCCTCTAG) | 0.0292
TAATCCTCTTGGGTTCTAACCTGTTGCCT (site GAATCCTCTAG) | 0.0754
TAATCCTCTTGGGTTCTAACCTGTTGCCT (site TAATCCTCTAG) | 1.3
TAATCGACTTGGGTTCTAACCTGTTGCCT (site TAATCGACTAG) | 0.102
TAATCGACTTGGGTTCTAACCTGTTGCCT (site TAATCGCCTAG) | 0.643
TAATCGACTTGGGTTCTAACCTGTTGCCT (site TAATCGGCTAG) | 0
TAATCGACTTGGGTTCTAACCTGTTGCCT (site TAATCGTCTAG) | 0.0431
TAATGGCCTTGGGTTCTAACCTGTTGCGA (site ATGAACACTCA) | 0.0388
TAATGGCCTTGGGTTCTAACCTGTTGCGA (site TAATGGCCTTC) | 0.942
TAATGTACTTGGGTTCTAACCTGTTGCCT (site TAATGAACTAG) | 0.125
TAATGTACTTGGGTTCTAACCTGTTGCCT (site TAATGTACTAG) | 0.556
TAATTAGCTTGGGTTCTAACCTGTTGCCT (site TAAATAGCTAG) | 0.0142
TAATTAGCTTGGGTTCTAACCTGTTGCCT (site TAATTAGCTAG) | 0.435
TACAAGACTTGGGTTCTAACCTGTTGCGT (site GGACCCTCTGT) | 0.168
TACAAGACTTGGGTTCTAACCTGTTGCGT (site TACAAGACTAC) | 1.36
TACAAGTCTTGGGTTCTAACCTGTTGCCT (site CTACGACCTCC) | 0.289

Sequence | recombinant barcode read abundance (log10)
TACAAGTCTTGGGTTCTAACCTGTTGCCT (site TACAAGTCTAG) | 0.625
TACAGACCTTGGGTTCTAACCTGTTGCCT (site AACAGACCTAG) | 0.11
TACAGACCTTGGGTTCTAACCTGTTGCCT (site CACAGACCTAG) | 0.197
TACAGACCTTGGGTTCTAACCTGTTGCCT (site GACAGACCTAG) | 0.065
TACAGACCTTGGGTTCTAACCTGTTGCCT (site TACAGACCTAG) | 1.11
TACAGCTCTTGGGTTCTAACCTGTTGCTT (site TACAGCTCTAA) | 0.016
TACAGCTCTTGGGTTCTAACCTGTTGCTT (site TACCGCTCTAA) | 0.104
TACAGCTCTTGGGTTCTAACCTGTTGCTT (site TACGGCTCTAA) | 0.0374
TACAGCTCTTGGGTTCTAACCTGTTGCTT (site TACTGCTCTAA) | 0.107
TACATCCCTTGGGTTCTAACCTGTTGCCC (site TACATCCCTAG) | 0.41
TACATCCCTTGGGTTCTAACCTGTTGCCC (site TACATCCCTCG) | 0.111
TACATCCCTTGGGTTCTAACCTGTTGCCC (site TACATCCCTGG) | 0.646
TACATCCCTTGGGTTCTAACCTGTTGCCC (site TACATCCCTTG) | 0.0347
TACCATTCTTGGGTTCTAACCTGTTGCTT (site TACAGTTCTAA) | 0.0331
TACCATTCTTGGGTTCTAACCTGTTGCTT (site TACCATTCTAA) | 0.239
TACCCACCTTGGGTTCTAACCTGTTGCCT (site AACCCACCTAG) | 0.295
TACCCACCTTGGGTTCTAACCTGTTGCCT (site CACCCACCTAG) | 0.169
TACCCACCTTGGGTTCTAACCTGTTGCCT (site GACCCACCTAG) | 0.262
TACCCACCTTGGGTTCTAACCTGTTGCCT (site TACCCACCTAG) | 1.47
TACCCATCTTGGGTTCTAACCTGTTGCCT (site TAACCATCTAG) | 0.0921
TACCCATCTTGGGTTCTAACCTGTTGCCT (site TACCCATCTAG) | 0.862
TACCCATCTTGGGTTCTAACCTGTTGCCT (site TAGCCATCTAG) | 0.106

Sequence | recombinant barcode read abundance (log10)
TACCCATCTTGGGTTCTAACCTGTTGCCT (site TATCCATCTAG) | 0.0366
TACCCGACTTGGGTTCTAACCTGTTGCCT (site TACCAGACTAG) | 0.0911
TACCCGACTTGGGTTCTAACCTGTTGCCT (site TACCCGACTAG) | 1.41
TACCCGACTTGGGTTCTAACCTGTTGCCT (site TACCGGACTAG) | 0.178
TACCCGACTTGGGTTCTAACCTGTTGCCT (site TACCTGACTAG) | 0.00741
TACCCGCCTTGGGTTCTAACCTGTTGCCT (site TACCCGCCTAG) | 0.838
TACCCGCCTTGGGTTCTAACCTGTTGCCT (site TCCCCGGCTAG) | 0.206
TACCCTACTTGGGTTCTAACCTGTTGCAT (site TACACTACTAT) | 0.0106
TACCCTACTTGGGTTCTAACCTGTTGCAT (site TACCCTACTAT) | 0.654
TACCGCCCTTGGGTTCTAACCTGTTGCGT (site GGAAAGACTGT) | 0.166
TACCGCCCTTGGGTTCTAACCTGTTGCGT (site TACCGCCCTAC) | 1.95
TACCGGACTTGGGTTCTAACCTGTTGCGT (site TACCGGACTAC) | 2.13
TACCGGACTTGGGTTCTAACCTGTTGCGT (site TACCGGCCTAA) | 0.0831
TACCGTTCTTGGGTTCTAACCTGTTGCCT (site TAACGTTCTAG) | 0
TACCGTTCTTGGGTTCTAACCTGTTGCCT (site TACCGTTCTAG) | 0.41
TACGAATCTTGGGTTCTAACCTGTTGCCG (site TACGAATCTAG) | 0.235
TACGAATCTTGGGTTCTAACCTGTTGCCG (site TACGAATCTCG) | 0.465
TACGAGGCTTGGGTTCTAACCTGTTGCCT (site TACGAGGCTAG) | 0.406
TACGAGGCTTGGGTTCTAACCTGTTGCCT (site TACGCGGCTAG) | 0.0314
TACGAGGCTTGGGTTCTAACCTGTTGCCT (site TACGGGGCTAG) | 0.0616
